{
  "source": "paper PMC8929329",
  "about": "“The pharmaceutical excipient PEG400 affect the absorption of baicalein in Caco‐2 monolayer model by interacting with UDP‐glucuronosyltransferases and efflux transport proteins” (Pharmacology Research & Perspectives, 2022)",
  "key": {"Stability study in HBSS": {"assay": "Stability study in HBSS", "type": "physicochemical", "conditions": "37°C, 2 h", "experimental": "The test was carried out by measuring the content of B, BG, and B6G before and after keeping in the HBSS solution at 37°C for 2 h. The time interval was selected according to the permeation experiment. The differences between the contents of the three samples before or after the incubation were calculated and expressed as the percentage of B, BG, and B6G remaining."}, "[1]": {"assay": "Permeation experiments on Caco-2 cell monolayer (two-way transport)", "type": "in vitro ADME, human", "conditions": "human, read-out: corrected apparent permeability (Pcorrected); for Papp at 120 min, 5 μM: baicalein 5 μM; for Papp at 120 min, 15 μM: baicalein 15 μM", "experimental": "(§1) Cell culture was performed as previously described.[15] For transport experiments, Caco-2 cells from passage number 20-30 were seeded at a density of 2 × 10^5 cells per well on transwell plate (a solid insert for cell culture contains porous permeable polycarbonate membrane) with polycarbonate membranes using a blood-counting chamber (QIU JING®). A 0.5 ml of culture medium with cells was added to the apical side (AP) and 1.5 ml of blank culture medium was added to the basolateral side (BL). During the incubation period, the medium on the AP and BL sides were changed every 2 days in the first week, and every day after a week until the 21st day. The permeation of samples was assessed in both directions at different concentrations. This experiment assessed the influence of different concentrations (%, v/v) of PEG400 on the permeation process of B, BG, and […]. […] Caco-2 cell monolayers with qualified monolayer membrane integrity were used for drug permeability experiments. Aspirated and discarded the original culture medium in the transwell plate, added pre-warmed (37°C) HBSS to wash 3 times, put it in the incubator for the last time and incubated for 30 min. […] For the AP-BL permeability (absorptive transport study), add 0.5 ml of samples (dissolved in HBSS) to the apical side (AP) as a supply chamber, and add 1.5 ml of pre-warmed HBSS to the basolateral side (BL) as a receiving chamber. Alternatively, in the permeation direction of BL-AP compartment (secretive transport study), add 1.5 ml of samples (dissolved in HBSS) to the BL side as a supply chamber, and add 0.5 ml of pre-warmed HBSS to the AP side as a receiving chamber. After the above steps, put the transwell plate on the thermostatic oscillator (Changzhou Wanhe Instrument Manufacturing Co., Ltd.) at 60 r/min. And sample 100 μl from the receiving pool or 10 μl from the supply chamber at 30, 60, 90, and 120 min depending on the experiment, and make up the same volume of blank pre-warmed HBSS. The sample taken from the transwell plate was precipitated with the 100 μl of methanol to precipitate the protein. After centrifugation at 16 000g for 15 min at 4°C, 70 μl of the supernatant was taken. And the content was determined by UPLC-MS/MS method to calculate the apparent permeability coefficient (P app) and efflux ratio (ER). The P app and ER of Caco-2 monolayers was measured and calculated as Equations ((2), (3), (4)): (2) Papp=dQ/dt/AC0 Where ΔQ/Δt (ng/ml·s) is the rate of permeability (ng/ml·s for B, BG, […]); A is for the membrane area (1.12 cm^2); C 0 (ng/ml/for B, BG, […]) is the initial concentration of the sample in the supply chamber. The apparent permeability might need to be corrected because of the effect of the marked amount of baicalein glucuronide.[17] Thus, the corrected permeability was calculated from the total rate of drug transport and the glucuronide excretion rate of bidirectional side divided by the membrane area (A) of the monolayer and the initial concentration of baicalein at the loading side (C 0): (3) Pcorrected=dQ/dt+Aex+Bex/AC0 (4) […] - BL Where P appBL-AP is the apparent permeability coefficient when the sample is added on the basolateral side; […]-BL is the apparent permeability coefficient when the sample is added on the apical side."}, "Caco-2 cell monolayer": {"test_system": "Caco-2 cell monolayer", "assay": "Permeation experiments on Caco-2 cell monolayer (two-way transport)", "type": "in vitro ADME, human", "experimental": "as §1"}, "UGT1A9": {"test_system": "UGT1A9", "assay": "Enzyme activity assay, intestinal microsome incubation: baicalein glucuronidation to BG", "type": "in vitro ADME, human", "conditions": "BG formation (UGT1A9)", "experimental": "(§2) In this experiment, the effect of PEG400 on the enzyme activities of UGT1A8 and UGT1A9 was evaluated by in vitro microsome incubation. The activity of UGT1A8 and UGT1A9 was determined by detecting the production of BG and B6G with B as substrate.\n(§3) The incubation system contained 10 µl of 50 mM Tris‐HCl (pH 7.4) buffer, 10 µl of 5 mM MgCl2 solution, 10 µl of 0.2 mg/ml alamethicin (Aladdin Biochemical Technology), and 20 µl of intestinal microsomes (Xenotech). The incubation system was pre‐incubated on ice for 15 min prior to experiment. Then, added 20 µl baicalein (dissolved in 50 mM Tris‐HCl) and PEG400 (20 µl) or 50 mM Tris‐HCl (20 µl) to the incubation system. The reaction was initiated by adding 5 mM UDPGA (10 µl) and incubated at 37°C for 15 min. The whole reaction was operated in a 1.5 ml centrifuge tube. Finally, the reaction was terminated by adding cold acetonitrile (100 µl) containing the genistein (IS). All solutions were thoroughly mixed for 3 min, then the mixture was centrifuged at 4°C at 16,000g for 15 min to precipitate the proteins completely. The supernatant was transferred and 10 µl was injected into the UPLC‐MS/MS system.\n(§4) Kinetics parameters were obtained by fitting the data with Michaelis‐Menten equation (Equation 5) using […] GraphPad Prism® 9. (5) v=Vmax×s/Km+s where v (nmol/min/mg) is the velocity of metabolite formation, V max (nmol/min/mg) is the maximum velocity, K m (µM) is the Michaelis constant defined as the substrate concentration at half of V max, [S] (µM) is the substrate concentration"}, "UGT1A8": {"test_system": "UGT1A8", "assay": "Enzyme activity assay, intestinal microsome incubation: baicalein glucuronidation to B6G", "type": "in vitro ADME, human", "experimental": "as §2, §3, §4"}, "[2]": {"conditions": "B6G formation (UGT1A8), 0.25% PEG400"}, "[3]": {"conditions": "B6G formation (UGT1A8), 0.5% PEG400"}, "[4]": {"conditions": "B6G formation (UGT1A8), 1% PEG400"}, "[5]": {"conditions": "B6G formation (UGT1A8), Control"}},
  "note": "Like-named read-outs stand apart in the source and are kept apart here.",
  "data": [
    {"smiles": "O=c1cc(-c2ccccc2)oc2cc(O)c(O)c(O)c12", "note": "[B, baicalein]", "values": [
      {"measurement": "Stability (percentage remaining)", "setting": "Stability study in HBSS; 150 ng ml^−1", "value": "98.11 ± 3.85", "unit": "%"},
      {"measurement": "Stability (percentage remaining)", "setting": "Stability study in HBSS; 300 ng ml^−1", "value": "99.70 ± 5.23", "unit": "%"},
      {"measurement": "Stability (percentage remaining)", "setting": "Stability study in HBSS; 600 ng ml^−1", "value": "98.43 ± 7.23", "unit": "%"},
      {"measurement": "Papp at 120 min, 10 μM", "setting": "[1]; Caco-2, 10 μM B loaded on AP side, 0.25% 1% PEG400 group", "value": 99.7, "unit": "×10⁻⁶ cm/s"},
      {"measurement": "Papp at 120 min, 10 μM", "setting": "[1]; Caco-2, 10 μM B loaded on AP side, 0.25% PEG400 group", "value": 100, "unit": "×10⁻⁶ cm/s"},
      {"measurement": "Papp at 120 min, 10 μM", "setting": "[1]; Caco-2, 10 μM B loaded on AP side, 0.5% PEG400 group", "value": 94.7, "unit": "×10⁻⁶ cm/s"},
      {"measurement": "Papp at 120 min, 5 μM", "setting": "[1]; Caco-2, AP-BL", "value": 73.2, "unit": "×10⁻⁶ cm/s"},
      {"measurement": "Papp at 120 min, 10 μM", "setting": "[1]; Caco-2, AP-BL, baicalein 10 μM", "value": 78.4, "unit": "×10⁻⁶ cm/s"},
      {"measurement": "Papp at 120 min, 15 μM", "setting": "[1]; Caco-2, AP-BL", "value": 53.5, "unit": "×10⁻⁶ cm/s"},
      {"measurement": "Papp at 120 min, 10 μM", "setting": "[1]; Caco-2, BL-AP, 10 μM B, 0.25% PEG400 group", "value": 186, "unit": "×10⁻⁶ cm/s"},
      {"measurement": "Papp at 120 min, 10 μM", "setting": "[1]; Caco-2, BL-AP, 10 μM B, 0.5% PEG400 group", "value": 159, "unit": "×10⁻⁶ cm/s"},
      {"measurement": "Papp at 120 min, 10 μM", "setting": "[1]; Caco-2, BL-AP, 10 μM B, 1% PEG400 group", "value": 135, "unit": "×10⁻⁶ cm/s"},
      {"measurement": "Papp at 120 min, 5 μM", "setting": "[1]; Caco-2, BL-AP", "value": 120, "unit": "×10⁻⁶ cm/s"},
      {"measurement": "Papp at 120 min, 10 μM", "setting": "[1]; Caco-2, BL-AP, baicalein 10 μM", "value": 163, "unit": "×10⁻⁶ cm/s"},
      {"measurement": "Papp at 120 min, 15 μM", "setting": "[1]; Caco-2, BL-AP", "value": 105, "unit": "×10⁻⁶ cm/s"},
      {"measurement": "permeation within 2 h compared with the control group", "setting": "Caco-2 cell monolayer; AL-BL experiment, baicalein 10 μM loaded with 0.5% (v/v) PEG400", "value": "significantly decreased"},
      {"measurement": "penetration within 2 h compared with the control group", "setting": "Caco-2 cell monolayer; BL-AP experiment, baicalein 10 μM loaded with 0.5% (v/v) PEG", "value": "decreased significantly"},
      {"measurement": "K m", "setting": "UGT1A9; 0.25% PEG400", "value": "14.34 ± 1.92", "unit": "µM"},
      {"measurement": "K m", "setting": "UGT1A9; 0.25% PEG400, listed as baicalein", "value": "14.34 ± 1.92", "unit": "µM"},
      {"measurement": "K m", "setting": "UGT1A9; 0.5% PEG400", "value": "18.26 ± 3.61", "unit": "µM"},
      {"measurement": "K m", "setting": "UGT1A9; 1% PEG400", "value": "28.30 ± 3.33", "unit": "µM"},
      {"measurement": "K m", "setting": "UGT1A9; 1% PEG400, listed as baicalein", "value": "28.30 ± 3.33", "unit": "µM"},
      {"measurement": "K m", "setting": "UGT1A9; Control", "value": "22.05 ± 3.74", "unit": "µM"},
      {"measurement": "K m", "setting": "UGT1A8; [2]", "value": "28.44 ± 8.34", "unit": "µM"},
      {"measurement": "V max", "setting": "UGT1A8; [2]", "value": "4.54 ± 0.40", "unit": "nmol/min/mg protein"},
      {"measurement": "K m", "setting": "UGT1A8; B6G formation (UGT1A8), 0.25% PEG400, listed as baicalein", "value": "28.44 ± 8.34", "unit": "µM"},
      {"measurement": "K m", "setting": "UGT1A8; [3]", "value": "38.86 ± 3.76", "unit": "µM"},
      {"measurement": "V max", "setting": "UGT1A8; [3]", "value": "6.68 ± 0.29", "unit": "nmol/min/mg protein"},
      {"measurement": "K m", "setting": "UGT1A8; [4]", "value": "194.73 ± 48.82", "unit": "µM"},
      {"measurement": "V max", "setting": "UGT1A8; [4]", "value": "24.78 ± 4.67", "unit": "nmol/min/mg protein"},
      {"measurement": "K m", "setting": "UGT1A8; B6G formation (UGT1A8), 1% PEG400, listed as baicalein", "value": "194.73 ± 48.82", "unit": "µM"},
      {"measurement": "K m", "setting": "UGT1A8; [5]", "value": "43.33 ± 2.63", "unit": "µM"},
      {"measurement": "V max", "setting": "UGT1A8; [5]", "value": "4.64 ± 0.11", "unit": "nmol/min/mg protein"},
      {"measurement": "V max", "setting": "UGT1A8; UGT1A8, 0.25%PEG400", "value": "4.54 ± 0.4", "unit": "nmol/min/mg"},
      {"measurement": "V max", "setting": "UGT1A8; UGT1A8, 0.5% PEG400", "value": "6.68 ± 0.29", "unit": "nmol/min/mg"},
      {"measurement": "V max", "setting": "UGT1A8; UGT1A8, 1% PEG400", "value": "24.8 ± 4.67", "unit": "nmol/min/mg"},
      {"measurement": "V max", "setting": "UGT1A8; UGT1A8, no PEG400", "value": "4.64 ± 0.11", "unit": "nmol/min/mg"}
    ]}
  ]
}
